Holding throughout (assay type): cell-based
In experiment [1] the test system is Ba/F3 cells expressing EGFR-wt. As to the kind of experiment: Growth inhibition (GI50) of Ba/F3 cells expressing EGFR-wt, Celltiter glo. The following applies: Mus musculus, BaF3, 72 h. Summed up:
(§1)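 Antiproliferative activity was assessed in EGFR-mutant or wild-type Ba/F3 cells over 72 h at 37 °C with 5% CO2. Cell viability was determined by CellTiter-Glo, and GI50 taken as the compound concentration inhibiting growth by 50%.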
(Cellular ATP, detected with luciferase, serves as a proxy for viable cell number.)

For experiment [2], the system named is Ba/F3 cells expressing del19/T790M/C797S (EGFR-DTC). As to the kind of experiment: Growth inhibition (GI50) of Ba/F3 cells expressing del19/T790M/C797S (EGFR-DTC), Celltiter glo. Conditions: Mus musculus, BaF3, 72 h. Summed up: as §1
The subject of experiment [3] is Ba/F3 cells expressing L858R/T790M/C797S (EGFR-LTC). In words: Growth inhibition (GI50) of Ba/F3 cells expressing L858R/T790M/C797S (EGFR-LTC), Celltiter glo. The following applies: Mus musculus, BaF3, 72 h. Summed up:
as §1

Experiment [4] concerns Ba/F3 cells expressing del19/T790M (EGFR-DT). In words: Growth inhibition (GI50) of Ba/F3 cells expressing del19/T790M (EGFR-DT), Celltiter glo. Conditions: Mus musculus, BaF3, 72 h. In short, it runs like this:
as §1

The subject of experiment [5] is Ba/F3 cells expressing L858R/T790M (EGFR-LT). In words: Growth inhibition (GI50) of Ba/F3 cells expressing L858R/T790M (EGFR-LT), Celltiter glo. The following applies: Mus musculus, BaF3, 72 h. In short, it runs like this:
as §1

Experiment [6] has as its system parental Ba/F3 cell line. In words: Growth inhibition (GI50) of the parental Ba/F3 cell line (not introduced with EGFR variants), Celltiter glo. The following applies: Mus musculus, BaF3, 72 h, parental Ba/F3 cells. In short, it runs like this:
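Parental Ba/F3 cells (100,000 cells/ml) were treated with 10-point, 4-fold compound dilutions (0.5% DMSO; top stock 2 mM) for 72 h at 37 °C, 5% CO2. Viability was read by CellTiter-Glo; GI50 is the concentration (μM) giving 50% growth inhibition.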

`CN1CCN(C2CCN(c3ccc4cc(Nc5ncc(Cl)c(Nc6cc7c(cc6NS(C)(=O)=O)CCO7)n5)ccc4n3)CC2)CC1` [Example 223, N-(6-((5-chloro-2-((2-(4-(4-methylpiperazin-1-yl)piperidin-1-yl)quinolin-6-yl)amino)pyrimidin-4-yl)amino)-2,3-dihydrobenzofuran-5-yl)methanesulfonamide]: the GI50 – broadly, the concentration at which growth is held to half of that of the control – was in the range of 2000 to 10000 nM in experiment [1]; 500 to 2000 nM in experiment [2]; 500 to 2000 nM in experiment [3]; 100 to 500 nM in experiment [4]; 100 to 500 nM in experiment [5]; 2000 to 10000 nM in experiment [6].
For `COc1cc(N2CCC(Nc3ccnn3C)CC2)c(C)cc1Nc1ncc(Cl)c(Nc2cc3c(cc2NS(C)(=O)=O)CCO3)n1` [Example 224, N-(6-((5-chloro-2-((2-methoxy-5-methyl-4-(4-((1-methyl-1H-pyrazol-5-yl)amino)piperidin-1-yl)phenyl)amino)pyrimidin-4-yl)amino)-2,3-dihydrobenzofuran-5-yl)methanesulfonamide], the GI50 in experiment [1] was 500 to 2000 nM; in experiment [2] it was 25 to 100 nM; in experiment [3] it was 25 to 100 nM; in experiment [4], 100 to 500 nM; in experiment [5], 25 to 100 nM; in experiment [6], 100 to 500 nM.
For `COc1cc(N2CCC(N3CCN(C(F)(F)F)CC3)CC2)c(C)cc1Nc1ncc(Cl)c(Nc2cc3c(cc2NS(C)(=O)=O)CCO3)n1` [Example 225, N-(6-((5-chloro-2-((2-methoxy-5-methyl-4-(4-(4-(trifluoromethyl)piperazin-1-yl)piperidin-1-yl)phenyl)amino)pyrimidin-4-yl)amino)-2,3-dihydrobenzofuran-5-yl)methanesulfonamide], the GI50 was in the range of 500 to 2000 nM in experiment [1]; 1 to 25 nM in experiment [2]; 25 to 100 nM in experiment [3]; 25 to 100 nM in experiment [4]; 25 to 100 nM in experiment [5]; 2000 to 10000 nM in experiment [6].
In the case of `CN1CCN(C2CCN(c3cc(Cl)c(Nc4ncc(Cl)c(Nc5cc(Cl)ccc5N(C)S(C)(=O)=O)n4)cc3Cl)CC2)CC1` [Example 226, N-(4-chloro-2-((5-chloro-2-((2,5-dichloro-4-(4-(4-methylpiperazin-1-yl)piperidin-1-yl)phenyl)amino)pyrimidin-4-yl)amino)phenyl)-N-methylmethanesulfonamide], the GI50 in experiment [1] lay in the range of 100 to 500 nM; in experiment [2], 25 to 100 nM; in experiment [3] it was 25 to 100 nM; in experiment [4], 25 to 100 nM; in experiment [5], 25 to 100 nM; in experiment [6], 500 to 2000 nM.
Consider `Cc1cc(Nc2ncc(Br)c(Nc3cc(Cl)ccc3N(C)S(C)(=O)=O)n2)c(Cl)cc1N1CCC(N2CCC(N(C)C)C2)CC1` (stereo not drawn) [Example 227, N-(2-((5-bromo-2-((2-chloro-4-(4-(3-(dimethylamino)pyrrolidin-1-yl)piperidin-1-yl)-5-methylphenyl)amino)pyrimidin-4-yl)amino)-4-chlorophenyl)-N-methylmethanesulfonamide], for which the GI50 in experiment [1] lay in the range of 1 to 25 nM; in experiment [2] it was 1 to 25 nM; in experiment [3], 25 to 100 nM; in experiment [4] it was 1 to 25 nM; in experiment [5], 1 to 25 nM; in experiment [6], 100 to 500 nM.
Take `CN1CCN(C2CCN(c3cc(Cl)c(Nc4ncc(Br)c(Nc5cc(Cl)ccc5N(C)S(C)(=O)=O)n4)cc3Cl)CC2)CC1` [Example 228, N-(2-((5-bromo-2-((2,5-dichloro-4-(4-(4-methylpiperazin-1-yl)piperidin-1-yl)phenyl)amino)pyrimidin-4-yl)amino)-4-chlorophenyl)-N-methylmethanesulfonamide]: the GI50 in experiment [1] was in the range of 100 to 500 nM; in experiment [2], 1 to 25 nM; in experiment [3], 25 to 100 nM; in experiment [4] it was 25 to 100 nM; in experiment [5] it was 1 to 25 nM; in experiment [6] it was 100 to 500 nM.
`COc1ccc(NS(C)(=O)=O)c(Nc2nc(Nc3cc(Cl)c(N4CCC(N5CCCN(C)CC5)CC4)cc3OC)ncc2Cl)c1` [Example 229, N-(2-((5-chloro-2-((5-chloro-2-methoxy-4-(4-(4-methyl-1,4-diazepan-1-yl)piperidin-1-yl)phenyl)amino)pyrimidin-4-yl)amino)-4-methoxyphenyl)methanesulfonamide]: the GI50 in experiment [1] lay within 500 to 2000 nM; in experiment [2], 25 to 100 nM; in experiment [3], 100 to 500 nM; in experiment [4], 1 to 25 nM; in experiment [5] it was 25 to 100 nM; in experiment [6], 2000 to 10000 nM.
On to `COc1ccc(NS(C)(=O)=O)c(Nc2nc(Nc3cc(C)c(N4CCC(N5CCC(N(C)C)C5)CC4)cc3Cl)ncc2Cl)c1` (stereo not drawn) [Example 230, N-(2-((5-chloro-2-((2-chloro-4-(4-(3-(dimethylamino)pyrrolidin-1-yl)piperidin-1-yl)-5-methylphenyl)amino)pyrimidin-4-yl)amino)-4-methoxyphenyl)methanesulfonamide], for which the GI50 in experiment [1] lay in the range of 500 to 2000 nM; in experiment [2], 100 to 500 nM; in experiment [3], 100 to 500 nM; in experiment [4], 25 to 100 nM; in experiment [5], 100 to 500 nM; in experiment [6], 2000 to 10000 nM.
In the case of `COc1ccc(NS(C)(=O)=O)c(Nc2nc(Nc3ccc(N4CCC(N5CCN(C)CC5)CC4)cc3OC)ncc2Cl)c1` [Example 231, N-(2-((5-chloro-2-((2-methoxy-4-(4-(4-methylpiperazin-1-yl)piperidin-1-yl)phenyl)amino)pyrimidin-4-yl)amino)-4-methoxyphenyl)methanesulfonamide], the GI50 in experiment [1] was in the range of 2000 to 10000 nM; in experiment [2] it was 100 to 500 nM; in experiment [3] it was 100 to 500 nM; in experiment [4], 100 to 500 nM; in experiment [5] it was 100 to 500 nM; in experiment [6], 2000 to 10000 nM.
Consider `COc1ccc(NS(C)(=O)=O)c(Nc2nc(Nc3cc(C)c(N4CCC(N5CCCC(N(C)C)C5)CC4)cc3OC)ncc2Cl)c1` (stereo not drawn) [Example 232, N-(2-((5-chloro-2-((4-(3-(dimethylamino)-[1,4′-bipiperidin]-1′-yl)-2-methoxy-5-methylphenyl)amino)pyrimidin-4-yl)amino)-4-methoxyphenyl)methanesulfonamide], for which the 50% growth inhibitory concentration (GI50) in experiment [1] is 500 to 2000 nM; in experiment [2] it was 25 to 100 nM; in experiment [3] it was 100 to 500 nM; in experiment [4] it was 25 to 100 nM; in experiment [5] it was 100 to 500 nM; in experiment [6] it was 2000 to 10000 nM.
Take `COc1ccc(NS(C)(=O)=O)c(Nc2nc(Nc3cc(C)c(N4CCC(N5CCN(C6CC6)CC5)CC4)cc3OC)ncc2Cl)c1` [Example 233, N-(2-((5-chloro-2-((4-(4-(4-cyclopropylpiperazin-1-yl)piperidin-1-yl)-2-methoxy-5-methylphenyl)amino)pyrimidin-4-yl)amino)-4-methoxyphenyl)methanesulfonamide]: the GI50 in experiment [1] is 500 to 2000 nM; in experiment [2] it was 25 to 100 nM; in experiment [3] it was 25 to 100 nM; in experiment [4], 25 to 100 nM; in experiment [5], 25 to 100 nM; in experiment [6], 2000 to 10000 nM.
For the compound `COc1ccc(NS(C)(=O)=O)c(Nc2nc(Nc3cc(C)c(N4CCC(N5CCC(C(F)(F)F)CC5)CC4)cc3OC)ncc2Cl)c1` [Example 234, N-(2-((5-chloro-2-((2-methoxy-5-methyl-4-(4-(trifluoromethyl)-[1,4′-bipiperidin]-1′-yl)phenyl)amino)pyrimidin-4-yl)amino)-4-methoxyphenyl)methanesulfonamide], the 50% growth inhibitory concentration (GI50) in experiment [1] was 2000 to 10000 nM; in experiment [2], 100 to 500 nM; in experiment [3], 100 to 500 nM; in experiment [4], 100 to 500 nM; in experiment [5], 100 to 500 nM; in experiment [6], 2000 to 10000 nM.

The values above are taken from patent US20240228458A1, “PYRIMIDINE DERIVATIVE HAVING PROTEIN KINASE INHIBITORY ACTIVITY, AND THERAPEUTIC PHARMACEUTICAL COMPOSITION COMPRISING SAME” (THERAPEX CO., LTD., priority 2021, published 2024).
